# From US4127572A, “Method of using 2(1H)-quinazolinethiones” (The Dow Chemical Company, priority 1978, dated 1978)
# Tests used:
# [1] = system: norepinephrine uptake in synaptosome preparations; test: Uptake of norepinephrine in rat forebrain synaptosome preparations; format: biochemical, rats; settings: 10 μg/ml, 37° C., rat forebrain synaptosomes, versus saline control; low values indicate activity
# Experimental: (§1) Antidepressant activity may also be illustrated in vitro by measuring the uptake of the neurotransmittors norepinephrine and serotonin in synaptosome preparations prepared from the forebrains of rats. The synaptosome preparation is incubated at 37° C. with radioactive neurotransmittor and the test compound at a concentration of 10 μg/ml. The synaptosome are isolated and the uptake of labelled neurotransmittor measured by liquid scintillation spectrometry using standard techniques. Percent inhibiton of uptake is determined by comparing the radioactivity taken in the synaptosome preparation with that of a similarly incubated saline control. Low values indicate activity.
# [2] = system: serotonin uptake in synaptosome preparations; test: Uptake of serotonin in rat forebrain synaptosome preparations; format: biochemical, rats; settings: 10 μg/ml, 37° C., rat forebrain synaptosomes, versus saline control; low values indicate activity
# Experimental: as §1
# reserpine-induced ptosis = test: Protection against reserpine-induced ptosis in mice; format: in vivo; settings: 60 mg/kg intraperitoneal, 30 minutes before 2.5 mg/kg reserpine subcutaneous, graded after 45 minutes
# Experimental: A similar group of mice serving as controls were injected only with the carrier. After 30 minutes, both groups of mice were injected subcutaneously with 2.5 mg/kg of reserpine. […] Animals injected with the benzotriazepine compound were graded after 45 minutes on the following basis: no ptosis = 0, partial ptosis = 1, complete ptosis = 2.
# [3] = system: stress induced rise of serum corticosteroid levels; test: Block of stress induced rise of serum corticosteroid levels in rats; format: in vivo; settings: 10 mg/kg intraperitoneal, stressed male rats; values less than 1.0 indicative of activity
# Experimental: See British Medical Journal, 1971(2), p. 310-313. Corticosteroid levels were compared between stressed male rats pretreated with 10 mg/kg given by intraperitoneal injection to corticosteroid levels of stressed male rats pretreated with saline. The results were expressed as a ratio with values less than 1.0 indicative of activity. The compound 6-chloro-3,4-dihydro-4-hydroxy-3-(3-(4-morpholinyl)propyl)-4-phenyl-2(1H)- quinazolinethione (Example 12) gave a value of 0.12.
compound,measurement,setting,value
CCN(CC)CCN1C(=S)Nc2ccc(Cl)cc2C1(O)c1ccccc1 (centres unmarked) [Example 8],norepinephrine uptake relative to saline control,[1],3%
same,inhibition of seratonin uptake,[2],7%
"6-chloro-3-(3-dimethylamino)propyl-3,4-dihydro-4-hydroxy-4-phenyl-2(1H)-quinazolinethione [Example 7]","sum of ptosis grades for the four test mice (no ptosis = 0, partial = 1, complete = 2; out of a possible 8)",reserpine-induced ptosis; controls 8,4
same,protection against reserpine-induced ptosis,reserpine-induced ptosis; four mice,50%
"OC1(c2ccccc2)c2cc(Cl)ccc2NC(=S)N1CCCN1CCOCC1 (centres unmarked) [Example 12, 6-chloro-3,4-dihydro-4-hydroxy-3-(3-(4-morpholinyl)propyl)-4-phenyl-2(1H)-quinazolinethione]","ratio of corticosteroid levels, stressed rats pretreated with compound to stressed rats pretreated with saline",[3],0.12
